{
  "source": "patent US20100209519A1",
  "about": "“PHARMACEUTICAL COMPOSITION FOR INHALATION DELIVERY AND FABRICATION METHOD THEREOF” (NATIONAL TAIWAN UNIVERSITY, priority 2009, published 2010)",
  "test_system": "A549 cells",
  "test": "CDDP in vitro anticancer activity assay (MTT)",
  "type": "cell-based, human",
  "experimental": "A549 cells were placed in a 96-well culture plat at a density of 5×10^4 cells per well in 0.1 ml of growth medium and cultured for 24 hours. […] The percentage of cell viability is illustrated as the ratio of the absorbance of treated cells relative to the absorbance of non-treated cells.",
  "note": "Read-outs that look alike come from different tables or passages of the source.",
  "data": [
    {"smiles": "[NH2][Pt]([NH2])([Cl])[Cl]", "note": "[CDDP, Cisplatin]", "values": [
      {"measurement": "IC50", "setting": "48 hours, read-out: IC50 Value, 48 hours", "result": 13.6, "unit": "µM"},
      {"measurement": "IC50", "setting": "72 hours, read-out: IC50 Value, 72 hours", "result": 5.2, "unit": "µM"}
    ]}
  ]
}
